Experimental data from PubChem BioAssay (NCI).
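Abbreviation: GI50, concentration required for 50% inhibition of growth. TGI: concentration producing complete growth inhibition.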

What was measured:
Assay in all cases: DTP human tumour cell line panel, 384-well format; in the data active = GI50 below about 0.43 µM; inactive = the rest
ACHN renal = test system: ACHN renal
SF-539 CNS = test system: SF-539 CNS
SF-295 CNS = test system: SF-295 CNS
HCC-2998 colon = test system: HCC-2998 colon
CAKI-1 renal = test system: CAKI-1 renal
NCI-H23 lung = test system: NCI-H23 lung
RXF 393 renal = test system: RXF 393 renal
SNB-19 CNS = test system: SNB-19 CNS
COLO 205 colon = test system: COLO 205 colon
SK-MEL-28 melanoma = test system: SK-MEL-28 melanoma
NCI-H226 lung = test system: NCI-H226 lung
BT-549 breast = test system: BT-549 breast
TK-10 renal = test system: TK-10 renal
A549 NSCLC = test system: A549 NSCLC
UACC-257 melanoma = test system: UACC-257 melanoma
MDA-MB-435 melanoma = test system: MDA-MB-435 melanoma
MDA-MB-468 breast = test system: MDA-MB-468 breast
SN12C renal = test system: SN12C renal
OVCAR-5 ovarian = test system: OVCAR-5 ovarian
IGROV1 ovarian = test system: IGROV1 ovarian
EKVX NSCLC = test system: EKVX NSCLC
HT29 colon = test system: HT29 colon
NCI-H460 NSCLC = test system: NCI-H460 NSCLC
NCI-H522 lung = test system: NCI-H522 lung
U251 glioblastoma = test system: U251 glioblastoma
SK-MEL-5 melanoma = test system: SK-MEL-5 melanoma
UACC-62 melanoma = test system: UACC-62 melanoma
HOP-92 NSCLC = test system: HOP-92 NSCLC
HOP-62 NSCLC = test system: HOP-62 NSCLC
NCI-H322M lung = test system: NCI-H322M lung
HS 578T breast = test system: HS 578T breast
SK-OV-3 ovarian = test system: SK-OV-3 ovarian
OVCAR-4 ovarian = test system: OVCAR-4 ovarian
A498 renal = test system: A498 renal
LOX IMVI melanoma = test system: LOX IMVI melanoma
MOLT-4 leukemia = test system: MOLT-4 leukemia
MDA-MB-231 breast = test system: MDA-MB-231 breast
NCI/ADR-RES ovarian = test system: NCI/ADR-RES ovarian
DU-145 prostate = test system: DU-145 prostate
SR leukemia = test system: SR leukemia
MCF7 breast = test system: MCF7 breast
OVCAR-3 ovarian = test system: OVCAR-3 ovarian
M14 melanoma = test system: M14 melanoma
T-47D breast = test system: T-47D breast
SF-268 CNS = test system: SF-268 CNS
SNB-75 CNS = test system: SNB-75 CNS
MALME-3M melanoma = test system: MALME-3M melanoma
HL-60(TB) leukemia = test system: HL-60(TB) leukemia
OVCAR-8 ovarian = test system: OVCAR-8 ovarian
HCT-116 colon = test system: HCT-116 colon
KM12 colon = test system: KM12 colon
RPMI-8226 leukemia = test system: RPMI-8226 leukemia
PC-3 prostate = test system: PC-3 prostate
HCT-15 colon = test system: HCT-15 colon

CCOc1ccccc1N=Nc1c(C)[nH]n(-c2nc(-c3ccccc3)cs2)c1=O
> 100 µM: TGI (ACHN renal) | TGI (SF-539 CNS) | TGI (SF-295 CNS) | TGI (HCC-2998 colon) | TGI (CAKI-1 renal) | TGI (NCI-H23 lung) | TGI (RXF 393 renal) | TGI (SNB-19 CNS) | TGI (COLO 205 colon) | TGI (SK-MEL-28 melanoma) | TGI (NCI-H226 lung) | TGI (BT-549 breast) | TGI (TK-10 renal) | TGI (A549 NSCLC) | TGI (UACC-257 melanoma) | TGI (MDA-MB-435 melanoma) | TGI (SN12C renal) | TGI (OVCAR-5 ovarian) | TGI (IGROV1 ovarian) | TGI (EKVX NSCLC) | TGI (HT29 colon) | TGI (NCI-H460 NSCLC) | TGI (NCI-H522 lung) | TGI (U251 glioblastoma) | TGI (SK-MEL-5 melanoma) | TGI (UACC-62 melanoma) | TGI (HOP-92 NSCLC) | TGI (HOP-62 NSCLC) | TGI (NCI-H322M lung) | TGI (HS 578T breast) | TGI (SK-OV-3 ovarian) | TGI (OVCAR-4 ovarian) | TGI (A498 renal) | TGI (LOX IMVI melanoma) | TGI (MOLT-4 leukemia) | TGI (MDA-MB-231 breast) | TGI (NCI/ADR-RES ovarian) | TGI (DU-145 prostate) | TGI (SR leukemia) | TGI (MCF7 breast) | TGI (OVCAR-3 ovarian) | TGI (M14 melanoma) | TGI (T-47D breast) | TGI (SF-268 CNS) | TGI (SNB-75 CNS) | TGI (MALME-3M melanoma) | TGI (HL-60(TB) leukemia) | TGI (OVCAR-8 ovarian) | TGI (HCT-116 colon) | TGI (KM12 colon) | TGI (RPMI-8226 leukemia) | TGI (PC-3 prostate) | TGI (HCT-15 colon)
9.75 µM: TGI (MDA-MB-468 breast)
inactive: GI50 (ACHN renal) > 100 µM | GI50 (SF-539 CNS) > 100 µM | GI50 (SF-295 CNS) > 100 µM | GI50 (HCC-2998 colon) > 100 µM | GI50 (CAKI-1 renal) > 100 µM | GI50 (NCI-H23 lung) > 100 µM | GI50 (RXF 393 renal) > 100 µM | GI50 (SNB-19 CNS) > 100 µM | GI50 (COLO 205 colon) > 100 µM | GI50 (SK-MEL-28 melanoma) > 100 µM | GI50 (NCI-H226 lung) > 100 µM | GI50 (BT-549 breast) > 100 µM | GI50 (TK-10 renal) > 100 µM | GI50 (A549 NSCLC) > 100 µM | GI50 (UACC-257 melanoma) > 100 µM | GI50 (MDA-MB-435 melanoma) > 100 µM | GI50 (MDA-MB-468 breast) 1.47 µM | GI50 (SN12C renal) > 100 µM | GI50 (OVCAR-5 ovarian) > 100 µM | GI50 (IGROV1 ovarian) > 100 µM | GI50 (EKVX NSCLC) > 100 µM | GI50 (HT29 colon) > 100 µM | GI50 (NCI-H460 NSCLC) > 100 µM | GI50 (NCI-H522 lung) > 100 µM | GI50 (U251 glioblastoma) > 100 µM | GI50 (SK-MEL-5 melanoma) > 100 µM | GI50 (UACC-62 melanoma) > 100 µM | GI50 (HOP-92 NSCLC) > 100 µM | GI50 (HOP-62 NSCLC) > 100 µM | GI50 (NCI-H322M lung) > 100 µM | GI50 (HS 578T breast) > 100 µM | GI50 (SK-OV-3 ovarian) > 100 µM | GI50 (OVCAR-4 ovarian) > 100 µM | GI50 (A498 renal) > 100 µM | GI50 (LOX IMVI melanoma) > 100 µM | GI50 (MOLT-4 leukemia) 98.9 µM | GI50 (MDA-MB-231 breast) > 100 µM | GI50 (NCI/ADR-RES ovarian) > 100 µM | GI50 (DU-145 prostate) > 100 µM | GI50 (SR leukemia) > 100 µM | GI50 (MCF7 breast) > 100 µM | GI50 (OVCAR-3 ovarian) > 100 µM | GI50 (M14 melanoma) > 100 µM | GI50 (T-47D breast) > 100 µM | GI50 (SF-268 CNS) > 100 µM | GI50 (SNB-75 CNS) > 100 µM | GI50 (MALME-3M melanoma) > 100 µM | GI50 (HL-60(TB) leukemia) 21.4 µM | GI50 (OVCAR-8 ovarian) > 100 µM | GI50 (HCT-116 colon) > 100 µM | GI50 (KM12 colon) > 100 µM | GI50 (RPMI-8226 leukemia) 53.9 µM | GI50 (PC-3 prostate) > 100 µM | GI50 (HCT-15 colon) > 100 µM

Nc1nc(Nc2ccc(C3CCC(N4CCOCC4)CC3)cc2)nn1-c1ccccn1 (stereo unspecified)
5.19 µM: TGI (OVCAR-5 ovarian)
13.2 µM: TGI (SF-268 CNS)
3.34 µM: TGI (SK-MEL-28 melanoma)
6.7 µM: TGI (HOP-62 NSCLC)
3.02 µM: TGI (SF-539 CNS)
6.32 µM: TGI (HCC-2998 colon)
3.54 µM: TGI (HS 578T breast)
11.6 µM: TGI (IGROV1 ovarian)
8.5 µM: TGI (DU-145 prostate)
inactive: GI50 (ACHN renal) 2.84 µM | GI50 (SF-539 CNS) 1.43 µM | GI50 (HCC-2998 colon) 2.97 µM | GI50 (CAKI-1 renal) 3.08 µM | GI50 (NCI-H23 lung) 2.77 µM | GI50 (SNB-19 CNS) 3.68 µM | GI50 (COLO 205 colon) 2.89 µM | GI50 (SK-MEL-28 melanoma) 1.81 µM | GI50 (NCI-H226 lung) 2.59 µM | GI50 (BT-549 breast) 1.67 µM | GI50 (TK-10 renal) 5.32 µM | GI50 (A549 NSCLC) 3.49 µM | GI50 (UACC-257 melanoma) 1.83 µM | GI50 (MDA-MB-435 melanoma) 2.25 µM | GI50 (SN12C renal) 1.05 µM | GI50 (OVCAR-5 ovarian) 2.44 µM | GI50 (IGROV1 ovarian) 3.06 µM | GI50 (EKVX NSCLC) 4.45 µM | GI50 (HT29 colon) 1.82 µM | GI50 (NCI-H460 NSCLC) 3.17 µM | GI50 (NCI-H522 lung) 3.11 µM | GI50 (U251 glioblastoma) 2.02 µM | GI50 (SK-MEL-5 melanoma) 1.7 µM | GI50 (UACC-62 melanoma) 2.03 µM | GI50 (HOP-92 NSCLC) 4.97 µM | GI50 (HOP-62 NSCLC) 2.58 µM | GI50 (NCI-H322M lung) 4.03 µM | GI50 (HS 578T breast) 1.89 µM | GI50 (SK-OV-3 ovarian) 3.33 µM | GI50 (OVCAR-4 ovarian) 7.22 µM | GI50 (A498 renal) 2.57 µM | GI50 (LOX IMVI melanoma) 2.04 µM | GI50 (MOLT-4 leukemia) 1.76 µM | GI50 (MDA-MB-231 breast) 4.56 µM | GI50 (DU-145 prostate) 3.08 µM | GI50 (MCF7 breast) 3.43 µM | GI50 (OVCAR-3 ovarian) 3.13 µM | GI50 (M14 melanoma) 2.26 µM | GI50 (SF-268 CNS) 3.37 µM | GI50 (SNB-75 CNS) 2 µM | GI50 (MALME-3M melanoma) 1.86 µM | GI50 (HL-60(TB) leukemia) 1.35 µM | GI50 (OVCAR-8 ovarian) 5.06 µM | GI50 (HCT-116 colon) 2.42 µM | GI50 (RPMI-8226 leukemia) 2.3 µM | GI50 (PC-3 prostate) 3.57 µM | GI50 (HCT-15 colon) 2.01 µM
15 µM: TGI (NCI-H322M lung)
3.94 µM: TGI (SNB-75 CNS)
3.31 µM: TGI (UACC-257 melanoma)
27.8 µM: TGI (OVCAR-4 ovarian)
2.67 µM: TGI (HL-60(TB) leukemia)
4.14 µM: TGI (HCT-15 colon)
9.08 µM: TGI (NCI-H522 lung)
7.21 µM: TGI (OVCAR-3 ovarian)
3.25 µM: TGI (BT-549 breast)
10.7 µM: TGI (NCI-H460 NSCLC)
> 100 µM: TGI (CAKI-1 renal) | TGI (NCI-H23 lung) | TGI (A549 NSCLC) | TGI (EKVX NSCLC) | TGI (SK-OV-3 ovarian) | TGI (MDA-MB-231 breast) | TGI (MCF7 breast) | TGI (OVCAR-8 ovarian) | TGI (KM12 colon)
20.4 µM: TGI (HOP-92 NSCLC)
11.9 µM: TGI (PC-3 prostate)
4.56 µM: TGI (UACC-62 melanoma)
24.1 µM: TGI (TK-10 renal)
5.83 µM: TGI (COLO 205 colon)
3.78 µM: TGI (RPMI-8226 leukemia)
4.1 µM: TGI (MALME-3M melanoma)
16.5 µM: TGI (SNB-19 CNS)
6.49 µM: TGI (NCI-H226 lung)
5.75 µM: TGI (A498 renal)
3.84 µM: TGI (SN12C renal)
3.63 µM: TGI (LOX IMVI melanoma)
7.6 µM: TGI (ACHN renal)
3.89 µM: TGI (M14 melanoma)
3.23 µM: TGI (SK-MEL-5 melanoma)
active: GI50 (SR leukemia) 0.255 µM | GI50 (KM12 colon) 0.291 µM
3.59 µM: TGI (HT29 colon)
0.559 µM: TGI (SR leukemia)
3.19 µM: TGI (MOLT-4 leukemia)
6 µM: TGI (HCT-116 colon)
4.06 µM: TGI (U251 glioblastoma)
6.2 µM: TGI (MDA-MB-435 melanoma)
